The source of these data is patent publication US20150099653A1, “PROCESS OF DIAGNOSTIC, PROGNOSTIC AND THERAPEUTIC MONITORING OF SOLID TUMORS” (CENTRE NATIONAL DE LA RECHERCHE SCIENTIFIQUE, priority 2011, published 2015).

Series [1] deals with breast tumor xenograft (HBCx-4A, HBCx-16, HBCx-8, HBCx-17). As to the kind of experiment: Cisplatin treatment in four models of breast tumor xenograft, RBD expression. The format is in vivo, mouse. From the text: The four models are the followings: HBCx-4A (non-responsive), HBCx-16 (responsive), HBCx-8 (responsive), HBCx-17 (responsive). […] Left histograms (FeLVC.RBD): from left to right HBCx-4A, HBCx-16, HBCx-8, HBCx-17. Right histograms (BLV.RBD): from left to right HBCx-4A, HBCx-16, HBCx-8, HBCx-17.

Series [2] concerns line coming from HBCx-4A. As to the kind of experiment: RBD expression after in vitro cisplatin (MFI, flow cytometry). It counts as cell-based, human. Here is the method:
FIG. 16B: PERV-A.RBD • x-axis: time in hours • y-axis: MFI (mean of fluorescent intensity)
(§1) For metabolite transporters labelling, 200 000 to 500 000 viable cells were incubated at 37° C. in RBD premix consisting in 3 μl of a RBD mouse Fc tagged plus 3 μl of a RBD rabbit Fc tagged diluted in 50 μl of CO2 independent medium and washed once before secondary staining with fluorescent conjugated antibodies against mouse (goat anti-mouse AF488, Cell Signalling Technology) and rabbit (goat anti-rabbit AF647, Cell Signalling Technology). Rat anti-mouse Pan H-2 added in a third step allowed for the discrimination between human and mouse cells.
On the technique in general: A flow cytometer gives signals particle by particle.

The subject of series [3] is line coming from HBCx-4A. As to the kind of experiment: Cisplatin dose response kinetic, cell viability (OD 450 nm). The note with it: HBCx-4A line on plastic. It counts as cell-based, human. Here is the method: FIG. 16A: cisplatine dose response kinetic
from top to bottom: white circle: no treatment (no tt), white square: 35 μM, white triangle (top point): 45 μM, white triangle (bottom point): 55 μM, white diamond: 65 μM, black circle: […]

For series [4], the system named is HBCx-41 in vitro cultured dissociated cells. As to the kind of experiment: In vitro treatment of ex vivo cultured dissociated cells with anti-cancer drugs, WST-1 viability. The format is cell-based, human. The conditions noted are these: HBCx-41 dissociated cells, incremental concentrations, 72 h incubation. How it is done: In vitro treatments with anti-cancer drugs were performed in flat bottomed 96 well microplates. Equal number of viable cells (40 000) were distributed in each well and allowed for attachment for 3 days. […] After 72 h incubation in presence or absence of compounds, WST-1 (based on the cleavage of the tetrazolium salt by respiratory mitochondrial enzyme, Roche diagnostic) was added and incubated following manufacturer instructions. Optic density was read on a microplate reader at 450 nm. A sigmoid analytical curve gave the 50% inhibitory concentration (IC50).

The subject of series [5] is line coming from HBCx-4A. As to the kind of experiment: RBD expression after in vitro everolimus (MESF, flow cytometry). The conditions noted are these: 0, 1, 100, 1000 nM; 6, 24, 72 h. The format is cell-based, human. Here is the method: (§2) FIG. 17A to 17H presents the in vitro effect of everolimus on a line coming from HBCx-4A and put on plastic in function of time.
FIGS. 17B and 17C: 6 hours after everolimus.
FIGS. 17D and 17E: 24 hours after everolimus.
FIGS. 17F to 17H: 72 hours after everolimus. […]
High sensitivity is a challenge in flow cytometry. […] To visualize thin variation of expression level in multiple channel protocol, we need one unique unit, as fluorescence arbitrary units read on the same cytometer from two different fluorophores in their own channel cannot be confronted. Molecule of Equivalent Soluble Fluorochrome (MESF) is given by regression of arbitrary fluorescence measured versus standardisation beads coated with known amounts of same fluorochrome used in cells staining (AF647 and AF488 MESF quantum beads, BangsLab) acting as intra- and interexperiments calibrator. Measured fluorescence depends on lasers power, photomultiplicator tube settings, pH of staining medium. Fluorescence measured is proportional to the number of fluorochromes linked to the antibody used, itself correlated to the number of antibody bound to specific sites. […] For RBDs, quantification of non-specific signal was determined using secondary conjugated antibody alone.

Series [6] concerns breast tumor xenograft (HBCx-3). As to the kind of experiment: Everolimus treatment in breast tumor xenograft, RBD expression. The format is in vivo, mouse. The conditions noted are these: HBCx-3, 2.5 mg/kg i.p. How it is done: FIG. 12 presents the effect of an everolimus treatment (2.5 mg/kg, i.p.—intraperotoneal) in a model of breast tumor xenograft (HBCx-3) known to be responsive to everolimus treatment at short times.
Mice of example 1 have been used.
Four RBDs are studied: • Circle: Xeno.RBD • Triangle: Ampho.RBD • Diamond: FeLVC.RBD • Square: RD114.RBD
The human breast cancer specimens were obtained with informed consent from the patients undergoing surgery. Fresh tumor fragments were grafted into the interscapular fat pad of 8-12 week old female Swiss nude mice, under avertin anaesthesia. Mice were maintained in specific pathogen-free animal housing (Institut Curie, Paris, France) and received estrogen (17 mg/ml) diluted in drinking water. Xenografts appeared at the graft site 2 to 8 months after initial transplantation. They were subsequently transplanted from mouse to mouse and formally established since third in vivo passage (Marangoni, Elisabetta A new model of patient tumor-derived breast cancer xenografts for preclinical assays Clin Cancer Res. 2007 Jul. 1; 13(13):3989-98). All the experiments were performed in accordance with the UKCCCR guidelines about animal ethics in neoplasia research (British Journal of Cancer (2010) 102, 1555-1577). Present experiments were all performed in well-established tumor models and required a minimal tumor size of 600 mm^3 to collect enough cellular material. In all cases, particular attention through careful clinical examination has been paid to ensure that the recipient mice remained in a general good health to avoid as far as possible necrotic tumors. All tumors were aseptically excised from ethically sacrificed mice with autoclaved surgical material. NEDB and culture media w/o FCS are both equivalent for a short period before processing.
as §1

The test system of series [7] is line coming from HBCx-4A. As to the kind of experiment: Everolimus dose response kinetic, WST (OD 450 nm). It counts as cell-based, human. How it is done: as §2
FIG. 17A: everolimus dose response kinetic
from top to bottom: no treatment (nott), black circle: 0.001 μM, white square: 0.1 μM, black triangle: 10 μM, bottom white square: 50 μM.
At 10 μM, the dose of everolimus is a cytotoxic dose. • x-axis: time in hours • y-axis: WST (OD 450 nm)

Series [8] deals with breast tumor xenograft (HBCx-3). The conditions noted are these: HBCx-3, short times; cited from earlier work.
Series [9] addresses T1, Glut1 (human, UniProt P11166 1-492).
T1 construct: whole, on cells; also called glucose transporter GLUT-1
T1 sequence: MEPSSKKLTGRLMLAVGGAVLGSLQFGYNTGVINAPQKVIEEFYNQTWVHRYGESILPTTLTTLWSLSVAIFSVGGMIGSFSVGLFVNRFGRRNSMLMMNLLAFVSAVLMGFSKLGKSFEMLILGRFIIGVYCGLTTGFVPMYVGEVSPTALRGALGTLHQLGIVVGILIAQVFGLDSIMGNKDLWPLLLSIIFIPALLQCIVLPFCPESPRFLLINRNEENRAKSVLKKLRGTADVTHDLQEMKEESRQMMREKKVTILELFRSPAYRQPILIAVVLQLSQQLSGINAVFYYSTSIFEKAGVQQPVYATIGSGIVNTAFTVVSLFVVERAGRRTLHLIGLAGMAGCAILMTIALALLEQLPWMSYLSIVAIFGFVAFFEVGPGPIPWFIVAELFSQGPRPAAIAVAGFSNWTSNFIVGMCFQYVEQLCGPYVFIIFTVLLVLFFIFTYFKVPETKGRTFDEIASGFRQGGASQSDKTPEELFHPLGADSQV
As to the kind of experiment: flow cytometry, RBD-Fc labelling of viable human breast cancer xenograft cells (HBCx-3, -4A, -8, -24, -30), read out in MESF.

Series [10] deals with T2, PiT1 (human, UniProt Q8WUM9 1-679).
T2 construct: whole, on cells
T2 sequence: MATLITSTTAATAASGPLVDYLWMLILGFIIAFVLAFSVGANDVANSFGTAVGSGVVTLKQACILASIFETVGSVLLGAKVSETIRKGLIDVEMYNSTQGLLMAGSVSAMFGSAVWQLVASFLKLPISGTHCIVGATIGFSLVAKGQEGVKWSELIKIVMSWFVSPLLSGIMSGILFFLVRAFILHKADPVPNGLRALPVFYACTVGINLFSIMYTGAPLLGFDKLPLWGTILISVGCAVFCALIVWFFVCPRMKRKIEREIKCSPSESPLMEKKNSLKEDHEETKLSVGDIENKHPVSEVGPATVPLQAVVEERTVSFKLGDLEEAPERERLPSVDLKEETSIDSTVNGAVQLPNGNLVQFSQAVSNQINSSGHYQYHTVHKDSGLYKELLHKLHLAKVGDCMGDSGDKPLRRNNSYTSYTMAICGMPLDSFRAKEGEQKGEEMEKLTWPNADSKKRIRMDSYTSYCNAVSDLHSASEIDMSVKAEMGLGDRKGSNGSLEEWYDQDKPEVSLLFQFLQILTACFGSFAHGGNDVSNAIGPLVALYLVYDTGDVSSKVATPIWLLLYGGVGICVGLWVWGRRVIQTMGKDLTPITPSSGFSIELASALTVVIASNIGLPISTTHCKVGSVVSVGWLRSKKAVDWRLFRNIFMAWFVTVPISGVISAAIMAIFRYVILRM
Described as above.

The mark [11] stands for this setting: 24 and 48 h, both doses (50 and 100 μM).
Setting [12] is: everolimus, HBCx-4A line on plastic.

As to `N.N.[Cl][Pt][Cl]` [cisplatin, Cisplatin], the “response of the model to treatment” value in series [1] (HBCx-4A, 6 mg/kg i.p.) was “non-responsive”; in [1] (HBCx-8, 6 mg/kg i.p.) it was “responsive”; in series [1] (HBCx-16, 6 mg/kg i.p.), “responsive”; in [1] (HBCx-17, 6 mg/kg i.p.), “responsive”. Besides, the “expression of FeLVC.RBD” value in series [1] (non responsive model (HBCx-4A), 72 h post treatment, 6 mg/kg i.p.) was “increase”; in series [1] (responsive model HBCx-16, 72 h post treatment, 6 mg/kg i.p.) it was “decrease”. Besides, the “expression of BLV.RBD” value in series [1] (responsive and non responsive models, 72 h post treatment, 6 mg/kg i.p.) is on record as “no difference”. The “AmphoMLV.RBD expression at 100 μM compared with 50 μM” value in series [2] (100 μM vs 50 μM) was “higher than at 50 μM”. The “RD114.RBD expression at 100 μM compared with 50 μM” value in [2] (100 μM vs 50 μM) is recorded as “higher than at 50 μM”. The “expression of AmphoMLV.RBD (MFI)” value in series [2] (setting [11]) is reported as “increased”. For the same molecule, the “expression of RD114.RBD (MFI)” value in [2] (setting [11]) is on record as “increased”. Besides, in series [2] (48 h, both doses (50 and 100 μM)), the “expression of PERV-A.RBD (MFI)” value is on record as “increased”. Further, the cytostatic dose in series [3] was 55 µM. In addition, the “toxicity (cell viability %)” value in series [4] is “dose dependent toxicity”.

As to `CC(=O)O[C@@]12CO[C@@H]1C[C@H](O)[C@@]1(C)C(=O)[C@H](O)C3=C(C)[C@@H](OC(=O)[C@H](O)[C@@H](NC(=O)OC(C)(C)C)c4ccccc4)C[C@@](O)([C@@H](OC(=O)c4ccccc4)[C@H]21)C3(C)C` [docetaxel, Docetaxel], the “toxicity (cell viability %)” value in series [4] is “dose dependent toxicity”.

Turning to `CO[C@H]1C[C@@H]2CC[C@@H](C)[C@@](O)(O2)C(=O)C(=O)N2CCCC[C@H]2C(=O)O[C@H]([C@H](C)C[C@@H]2CC[C@@H](OCCO)[C@H](OC)C2)CC(=O)[C@H](C)/C=C(\C)[C@@H](O)[C@@H](OC)C(=O)[C@H](C)C[C@H](C)/C=C/C=C/C=C/1C` [everolimus], in series [5], the “response of RBDs (MESF)” value was “time and dose dependant”. In series [6], the “variation of Ampho.RBD expression” value is “vary later”, the “variation of FeLVC.RBD expression” value is reported as “vary at the beginning of the treatment”, the “variation of RD114.RBD expression” value is listed as “higher than the one of Ampho” and the “variation of Xeno.RBD expression” value is recorded as “vary at the beginning of the treatment”. In addition, the “expression of RBDs with the treatment” value in [6] (Xeno, Ampho, FeLVC, RD114 RBDs) is reported as “varies significantly”. Further, the “effect on the line at 0.001 μM” value in [7] (everolimus 0.001 μM) was “proliferation of the line”. Also, in [7] (setting [12]), the cytostatic dose worked out at 0.1 µM and the cytotoxic dose was found to be 10 µM. In addition, in series [8], the “response of the model to treatment” value is on record as “responsive”.

B1: H2.RBD.mFC immunoadhesin (HTLV-2 SU receptor binding domain fused to mouse IgG Fc) (Fc fusion)
chain: QQSRCTLTVGISSYHSSPCSPTQPVCTWNLDLNSLTTDQRLHPPCPNLITYSGFHKTYSLYLFPHWIKKPNRQGLGYYSPSYNDPCSLQCPYLGCQSWTCPYTGPVSSPSWKFHSDVNFTQEVSQVSLRLHFSKCGSSMTLLVDAPGYDPLWFITSEPTQ
notes: also called HTLV-2.RBD-Mfc; RBD derived from HTLV-2; not shown: mouse IgG Fc fragment
As to B1, the binding result in [9] was “binds”.

B2: Ko.RBD.mFC immunoadhesin (KoRV SU receptor binding domain fused to mouse IgG Fc) (Fc fusion)
chain: NQQHNNPHQPMTLTWQVLSQTGSVVWEKKAVEPPWTWWPSLEPDVCALVAGLESWDIPELTASASQQARPPDSNYEHAYNQITWGTLGCSYPRARTRIARSQFYVCPRDGRSLSEARRCGGLESLYCKEWGCETAGTAYWQPRSSWDLITVGQGHPTGTCERTGWCNPLKIEFTEPGKRFRNWLQGRTWGLRFYVTGHPGVQLTIRLVITSPPPVVVG
notes: also called KoRV.RBD-Mfc; KoRV.RBD.MFC; not shown: mouse IgG Fc fragment
On to B2, for which the binding result in series [10] was “binds”.
